Measurements: patent US5741671A, “Isolation cloning and expression of transmembrane water channel aquaporin 1(AQP1)” (The Johns Hopkins University, priority 1995, dated 1998)

Target: T1, AQP1 (Homo sapiens, UniProt P29972)
T1 sequence (P29972 1-269): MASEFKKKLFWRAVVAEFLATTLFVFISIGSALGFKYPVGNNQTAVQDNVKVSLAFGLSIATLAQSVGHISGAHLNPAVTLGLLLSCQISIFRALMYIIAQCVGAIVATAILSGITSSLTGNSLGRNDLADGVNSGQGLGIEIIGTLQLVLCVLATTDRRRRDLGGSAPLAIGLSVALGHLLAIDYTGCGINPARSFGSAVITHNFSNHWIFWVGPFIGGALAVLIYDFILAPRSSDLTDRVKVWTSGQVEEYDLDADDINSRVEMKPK
Experiment: Xenopus oocyte osmotic swelling assay, AQP1 RNA-injected oocytes (Example 4)
Type: cell-based
Set-up: expressed in transfected cells; host or cells: Xenopus laevis oocytes injected with in vitro transcribed AQP1 RNA
Conditions: for Pf (osmotic water permeability): AQP1 RNA-injected (10 ng) oocytes, 22° C.
Protocol: Expression of AQP1 in Xenopus oocytes. Oocytes were removed from female Xenopus laevis frogs and prepared as described by Dascal (CRC Crit. Rev. Biochem., 1987, 22:317-373). Oocytes were injected with 0.05 microliters of water (control) or the same volume of water containing 1-10 nanograms of AQP1 RNA. The oocytes were incubated for up to 96 hours at 18° C. in modified Barth's buffer (88 mM NaCl, 1 mM KCl, 0.8 mM MgSO4, 0.3 mM Ca(NO3)2, 0.4 mM CaCl2, 2.4 mm NaHCO3, 10 mM HEPES, pH=7.4, total osmolality=200 mOsm/kg) also containing antibiotics. The whole oocytes were then removed and total cellular protein was dissolved in 40 microliters of buffer containing 1% (w/v) SDS and analyzed by immunoblot (Towbin et al., 1979, Proc. Natl. Acad. Sci. USA 76:4350-4354).
A swelling assay was adapted from that of published work (Fischbarg et al., 1990, Proc. Natl. Acad. Sci. USA 87:3244-3247; Zhang et al., 1990, J. Biol. Chem. 265: 15375-15378). Control-injected oocytes and AQP1 RNA-injected oocytes were incubated at 22° C. in modified Barth's solution diluted with distilled H2 O to 30% of the original tonicity. The oocytes were then observed by videomicroscopy. Swelling was monitored with a Nikon phase-contrast microscope equipped for videorecording. The longest (D1) and shortest (D2) diameters of the oocytes were measured at 15- to 30-second intervals. Oocyte volumes (V) at each time point were calculated relative to volume at the initial observation (Vo):
The change in relative volume with time, d(V/Vo)/dt, up to 8 minutes (or time of oocyte rupture) was fitted by computer to a quadratic polynomial, and initial rates of swelling were calculated. Osmotic water permeability (Pf, in cm/s) was calculated from osmotic swelling data, initial oocyte surface area (S=0.045 cm^2), and the molar volume of water (Vw =18 cm^3 /mol) (Zhang et al., 1990, J. Biol. Chem. 15375):
Pf =Vo ×d(V/Vo)dt]/[S×Vw x(osmm
After 72 hours, control- or AQP1 RNA-injected (10 ng) oocytes were treated as indicated. Some oocytes were left in standard Barth's buffer prior to measurement of osmotic swelling at 22° C. Other oocytes were incubated 5 minutes in Barth's buffer containing 0.3 mM or 3 mM HgCl2 as described, then removed and incubated for 15 min in 5 mM β-mercaptoethanol prior to osmotic swelling in the presence of β-mercaptoethanol.
After 72 hours, control-injected oocytes and oocytes injected with 0.1 to 10 ng of AQP1 RNA were studied for osmotic swelling at 22° C. The amount of AQP1 protein was estimated by dilutional immunoblotting (Denker et al., 1988, J. Biol. Chem. 263:15634; Laemmli, 1970, Nature 227:680; Towbin et al., 1979, Proc. Natl. Acad. Sci., 76:4350; Davis and Bennett, 1982, 257:5816).

restoration of swelling after HgCl2 inhibition (5 mM β-mercaptoethanol after 0.3 mM HgCl2) | Structure (SMILES) | inhibition of swelling of AQP1 RNA-injected oocytes (0.3 mM HgCl2) | Pf (osmotic water permeability) (0.3 mM HgCl2 5 minutes) [cm/s x 10^-4] | Pf (osmotic water permeability) (3.0 mM HgCl2 5 minutes) [cm/s x 10^-4]
restored | OCCS [β-mercaptoethanol] |  |  | 
 | [Cl][Hg][Cl] [HgCl2] | inhibited | 80.7 | 34.5
